Holding throughout (assay type): physicochemical
Data set [1] is described as follows: Solubility and aggregation in pure water.
A short description of data set [2]: Solubility and aggregation in aqueous Triton-X100 solution (optical absorption spectra, FIG. 8, FIG. 9).
Data set [3] in a line: Solubility and aggregation in mixed water/ethanol solvent (optical absorption spectra, FIG. 7).

As for [Sb(tbpc)(SO4)(HSO4)].4H2O [Compound 2], the “aggregation in pure water” value in data set [1] is listed as “strong aggregation”. Also, the “concentration up to which the dye remains disaggregated” value in data set [2] (Triton-X100 2% (w/v), absorbance at around 730 nm (FIG. 9)) was found to be 20 µM. In data set [2] (aqueous Triton-X100, above certain surfactant concentration (FIG. 8)), the “aggregation state above certain concentration of the surfactant” value was “remains dissolved in a disaggregated form”. Further, the “solubility in the presence of Triton-X100” value in data set [2] (aqueous, Triton-X100 present) is recorded as “grows high”. Moreover, the aggregation state entry in data set [3] (10% (v/v) ethanol) is “substantially aggregated form”; in data set [3] (30% (v/v) ethanol) it was “a peak ascribable to disaggregated species is clearly observed”; in data set [3] (50% ethanol) it was “contribution of aggregated species is negligible”. In addition, the “water solubility on addition of alcohol” value in data set [3] (alcohol added) is recorded as “greatly improved”.

For the origin of these results see US8524890B2, “Water-soluble phthalocyanine dye” (National Institute for Materials Science, priority 2009, dated 2013).
